In patent US20100048529A1, “New 2-Azetidinone Derivatives Useful In The Treatment Of Hyperlipidaemic Conditions” (ASTRAZENECA AB, priority 2005, published 2010):

Tested on: 14C-cholesterol absorption
Conditions: 0.2 μmol/kg by gavage, C57BL/6 female mice, procedure A
Protocol: In Vivo Testing of Cholesterol Absorption Inhibitors (A)
C57BL/6 female mice were maintained on regular chow diet and housed in individual cages to collect faeces. Mice were fasted for 3 hours and then gavaged with vehicle or compound. Half an hour later the mice were gavaged with radiolabelled cholesterol. Six hours after the ^14C-cholesterol gavage blood samples were taken via the tail and plasma prepared to determine how much cholesterol were absorbed. 24 hours after the gavage of ^14C-cholesterol the mice were bled and plasma were prepared for analysis. Faeces were collected for 24 hours to assess absorption efficiency.

For `CC(C)(c1ccccc1)[C@@H](NC(=O)CNC(=O)COc1ccc([C@@H]2[C@@H](SCC(O)c3ccc4c(c3)CCO4)C(=O)N2c2ccc(F)cc2)cc1)C(=O)NCC(=O)O` (stereo partly drawn) [Example 1, N-({4-[(2R,3R)-3-{[2-(2,3-dihydro-1-benzofuran-5-yl)-2-hydroxyethyl]thio}-1-(4-fluorophenyl)-4-oxoazetidin-2-yl]phenoxy}acetyl)glycyl-b,b-dimethyl-D-phenylalanylglycine], the “inhibition of 14C-cholesterol absorption” value was 36%.
